US6428969B1, “Method for determining oncogenic activity of a substance” (Ludwig Institute for Cancer Research, priority 1997, dated 2002)

Experiments:
[1] = system: Stat1−/− mice; experiment: MCA-induced tumor formation at the injection site; type: in vivo, mouse
Method: (§1) Groups of IFNγR^−/− mice and STAT1^−/^− mice were generated as described in Examples 1 and 2 and compared to a control group of 129/Sv/Ev wild-type mice. All animals were greater than 6 weeks old (ranging in age from about 6 to about 12 weeks). Each of 20-25 animals per group, were injected subcutaneously with a single dose of MCA at 1.5, 6.25, 25, 100 or 400 μg and monitored for tumor development.

[2] = system: IFNγR−/− mice; experiment: MCA-induced tumor formation at the injection site; type: in vivo, mouse
From the text: (§2) Initially, tumor formation was examined in groups of 15-20 IFNγR^−/^− mice generated as described in Example 1 and wild type inbred 129/Sv/Ev mice as controls. All animals were greater than 6 weeks old (ranging in age from about 6 to about 12 weeks). The 129/Sv/Ev background was specifically chosen for these experiments since 129/Sv/Ev mice are relatively resistant to the tumorigenic actions of MCA and the pure background of the mice insured that in vivo growth of the resulting tumors could be studied using tumor transplantation approaches. The knockout and control mice were injected subcutaneously in a single dose with 25, 100, or 400 μg of the chemical carcinogen 3-methylcholanthrene (MCA) diluted in peanut oil and monitored for tumor development at the injection site for a period of 130 days. The results are shown in FIG. 1A, which represents the percentage of mice in each group with a tumor over 5 mm as a function of the number of days after injection.
as §1

[3] = system: wild type 129/Sv/Ev mice; experiment: MCA-induced tumor formation at the injection site; type: in vivo, mouse; conditions: for tumor development: Example 5
From the text: as §2, §1

[4] = system: IFNγ-responsive and IFNγ-unresponsive mice; experiment: Histologic comparison of MCA-induced tumors; type: in vivo; conditions: three mouse strains; data not shown
Method: Both types of IFNγ insensitive mice developed MCA-induced tumors more frequently than wild-type mice. Tumor formation was detected in IFNγR^−/− mice treated with as little as 6.25 μg MCA.

[5] = system: perforin-deficient (PKO) mice; conditions: subcutaneous injection; cited from earlier work
[6] = system: α chain knockout mice; conditions: mouse, in vivo; cited from earlier work
[7] = system: p53−/+ mice; conditions: cited from earlier work
[8] = system: SK-LC-1; experiment: MHC class I surface expression by flow cytometry; type: cell-based, human; conditions: IFNγ 1000 IRU/ml or IFNαA/D 1000 U/ml, 72 hr, mean channel shift vs untreated cells
Method: (§3) To address this question IFNγ responsiveness was examined in a variety of tumor cell lines obtained from human tumor cell banks. Established cell lines were cultured in the presence of either buffer, human IFNγ (1000 IRU/ml), or human IFNαA/D (1000 U/ml) for 72 hr followed by quantitation of MHC class I surface expression by flow cytometry with the antibody W6/32 as previously described (Farrar et al., supra). W6/32 is a murine monoclonal antibody specific for a framework region of human MHC Class I and was kindly provided by Dr. Thalachallour Mohanakumar (Washington University, St. Louis, Mo.). IFNγ-dependent STAT1 activation was assessed by treating cells with either PBS or human IFNγ at 10,000 IRU/ml for 5 minutes at 37° C. followed by subjecting 5 μg of nuclear extract to EMSA using a ^32P-labeled GRR probe as described by Greenlund et al., EMBO J. 13:1591, 1994, which is incorporated herein by reference.
(§4) The experiment was repeated with 17 human adenocarcinoma cell lines and the data are shown in Table I below, with the induction of MHC class I expression represented as the mean channel shift between IFNγ-treated cells and untreated cells. […] The CALU-5 cell line was also insensitive to IFNα. None of the cell lines examined show IFNα-specific unresponsiveness.

[9] = system: A549; experiment: MHC class I surface expression by flow cytometry; type: cell-based, human; conditions: IFNγ 1000 IRU/ml or IFNαA/D 1000 U/ml, 72 hr, mean channel shift vs untreated cells
Method: as §3, §4

[10] = system: SK-LC-11; experiment: MHC class I surface expression by flow cytometry; type: cell-based, human; conditions: IFNγ 1000 IRU/ml or IFNαA/D 1000 U/ml, 72 hr, mean channel shift vs untreated cells
Method: as §3, §4

[11] = system: A457; experiment: MHC class I surface expression by flow cytometry; type: cell-based, human; conditions: IFNγ 1000 IRU/ml or IFNαA/D 1000 U/ml, 72 hr, mean channel shift vs untreated cells
Method: as §3, §4

[12] = system: SK-LC-7; experiment: MHC class I surface expression by flow cytometry; type: cell-based, human; conditions: for MHC Class I Enhancement (MCS): IFNγ 1000 IRU/ml or IFNαA/D 1000 U/ml, 72 hr, mean channel shift vs untreated cells
Method: as §3, §4

[13] = system: SK-LC-15; experiment: MHC class I surface expression by flow cytometry; type: cell-based, human; conditions: IFNγ 1000 IRU/ml or IFNαA/D 1000 U/ml, 72 hr, mean channel shift vs untreated cells
Method: as §3, §4

[14] = system: SK-LC-10; experiment: MHC class I surface expression by flow cytometry; type: cell-based, human; conditions: IFNγ 1000 IRU/ml or IFNαA/D 1000 U/ml, 72 hr, mean channel shift vs untreated cells
Method: as §3, §4

[15] = system: SK-LC-2; experiment: MHC class I surface expression by flow cytometry; type: cell-based, human; conditions: for MHC Class I Enhancement (MCS): IFNγ 1000 IRU/ml or IFNαA/D 1000 U/ml, 72 hr, mean channel shift vs untreated cells
Method: as §3, §4

[16] = system: SK-LU-1; experiment: MHC class I surface expression by flow cytometry; type: cell-based, human; conditions: IFNγ 1000 IRU/ml or IFNαA/D 1000 U/ml, 72 hr, mean channel shift vs untreated cells
Method: as §3, §4

[17] = system: CALU-3; experiment: MHC class I surface expression by flow cytometry; type: cell-based, human; conditions: IFNγ 1000 IRU/ml or IFNαA/D 1000 U/ml, 72 hr, mean channel shift vs untreated cells
Method: as §3, §4

[18] = system: SK-LC-4; experiment: MHC class I surface expression by flow cytometry; type: cell-based, human; conditions: IFNγ 1000 IRU/ml or IFNαA/D 1000 U/ml, 72 hr, mean channel shift vs untreated cells
Method: as §3, §4

[19] = system: SK-LC-12; experiment: MHC class I surface expression by flow cytometry; type: cell-based, human; conditions: IFNγ 1000 IRU/ml or IFNαA/D 1000 U/ml, 72 hr, mean channel shift vs untreated cells
Method: as §3, §4

[20] = system: SK-LC-19; experiment: MHC class I surface expression by flow cytometry; type: cell-based, human; conditions: for MHC Class I Enhancement (MCS): SK-LC-19, IFNγ 1000 IRU/ml or IFNαA/D 1000 U/ml, 72 hr, mean channel shift vs untreated cells
Method: as §3, §4

[21] = system: SK-LC-9; experiment: MHC class I surface expression by flow cytometry; type: cell-based, human; conditions: IFNγ 1000 IRU/ml or IFNαA/D 1000 U/ml, 72 hr, mean channel shift vs untreated cells
Method: as §3, §4

[22] = system: CALU-5; experiment: MHC class I surface expression by flow cytometry; type: cell-based, human; conditions: for MHC Class I Enhancement (MCS): IFNγ 1000 IRU/ml or IFNαA/D 1000 U/ml, 72 hr, mean channel shift vs untreated cells
Method: as §3, §4

[23] = system: SK-LC-20; experiment: MHC class I surface expression by flow cytometry; type: cell-based, human; conditions: IFNγ 1000 IRU/ml or IFNαA/D 1000 U/ml, 72 hr, mean channel shift vs untreated cells
Method: as §3, §4

[24] = system: SK-LC-16; experiment: MHC class I surface expression by flow cytometry; type: cell-based, human; conditions: IFNγ 1000 IRU/ml or IFNαA/D 1000 U/ml, 72 hr, mean channel shift vs untreated cells
Method: as §3, §4

[25] = system: RADgR.28.mgR cells; experiment: Antiproliferative or anti-metabolic effects of IFNγ in culture; type: cell-based, mouse; conditions: IFNγ alone or in combination with other cytokines, in vitro; data not shown
From the text: Having identified the tumor cell as the major target of IFNγ's actions, experiments were designed to define the mechanism underlying the rejection process. IFNγ can induce an antiproliferative state in certain cell types.

[26] = system: 33 melanoma and 17 lung tumor cell lines classified as non-adenocarcinoma; experiment: Preliminary study of IFNγ sensitivity of tumor cell lines; type: cell-based, human; conditions: of each group (33 melanoma, 17 lung non-adenocarcinoma lines), data not shown
Method: as §3

[27] = 400 μg MCA, single s.c. dose, at 130 days

Molecule | tumor induction [7] | MHC Class I Enhancement (MCS) [8] [MCS] | MHC Class I Enhancement (MCS) [9] [MCS] | MHC Class I Enhancement (MCS) [10] [MCS] | MHC Class I Enhancement (MCS) [11] [MCS] | MHC Class I Enhancement (MCS) [12] [MCS] | MHC Class I Enhancement (MCS) [13] [MCS] | MHC Class I Enhancement (MCS) [14] [MCS] | MHC Class I Enhancement (MCS) [15] [MCS] | MHC Class I Enhancement (MCS) [16] [MCS] | MHC Class I Enhancement (MCS) [17] [MCS] | MHC Class I Enhancement (MCS) [18] [MCS] | MHC Class I Enhancement (MCS) [19] [MCS] | MHC Class I Enhancement (MCS) [20] [MCS] | MHC Class I Enhancement (MCS) [21] [MCS] | MHC Class I Enhancement (MCS) [22] [MCS] | MHC Class I Enhancement (MCS) [23] [MCS] | MHC Class I Enhancement (MCS) [24] [MCS] | further results
Cc1ccc2cc3c(ccc4ccccc43)c3c2c1CC3 [MCA, 3-methylcholanthrene] | – | – | – | – | – | – | – | – | – | – | – | – | – | – | – | – | – | – | frequency of tumors relative to IFNγR−/− mice ([1]; at every dose examined): approximately two times; lowest MCA dose at which tumors could be detected ([1]; single s.c. dose, within 130 days): 1.6 μg MCA/mouse; mice forming tumors at the lower MCA dose ([2]; 25 μg MCA s.c., Example 4): high percentage; percentage of mice that developed tumors (over 5 mm) [2, 27]: 50%; time at which tumors were detected ([2]; all dose groups (25, 100, 400 μg MCA s.c.)): 90 days; tumor development compared with wild-type mice ([2]; all doses examined (25, 100, 400 μg)): more frequently and at earlier times; lowest MCA dose at which tumor formation was detected ([2]; single s.c. dose, within 130 days, Example 5): 6.25 µg; tumor development ([3]; 25 μg MCA): not; tumor development ([3]; 400 μg MCA): developed tumors; percentage of mice in which tumors were detected (over 5 mm) [3, 27]: 20%; MCA dose at which tumors formed ([3]; single s.c. dose, 130 days, Example 4): ≥ 100 µg; histology of induced tumors [4]: histologically indistinguishable fibrosarcomas; sarcomas at the injection site compared with normal MCA-treated mice [5]: higher frequency and with accelerated onset of tumor; tumors in α chain knockout mice compared with wild-type controls [6]: more tumors
C1CC2OC2CC1C1CO1 (stereo not drawn) [VCD, 4-vinyl-1-cyclohexene diepoxide] | tumors were induced | – | – | – | – | – | – | – | – | – | – | – | – | – | – | – | – | – | –
COc1ccc(C)cc1N [p-cresidine] | tumors were induced | – | – | – | – | – | – | – | – | – | – | – | – | – | – | – | – | – | –
IFNα | – | 18.7 | 21.8 | 13.8 | 27.1 | 37.2 | 79.6 | 22.6 | 16.7 | 16.7 | 17.0 | 36.7 | 12.7 | 25.1 | 53.4 | 0.0 | 25.9 | 10.9 | sensitivity to IFNα [22]: insensitive
IFNγ: cytokine interferonγ; human IFNγ used on human tumor cell lines (protein, UniProt P01579 24-161, looked up) Interferon gamma: QDPYVKEAENLKKYFNAGHSDVADNGTLFLGILKNWKEESDRKIMQSQIVSFYFKLFKNFKDDQSIQKSVETIKEDMNVKFFNSNKKKRDDFEKLTNYSVTDLNVQRKAIHELIQVMAELSPAAKTGKRKRSQMLFRG | – | 16.9 | 36.9 | 25.3 | 27.7 | 0.0 | 91.3 | 31.7 | 0.0 | 47.1 | 30.4 | 59.5 | 30.4 | 0.0 | 49.3 | 0.0 | 25.6 | 27.0 | responsiveness to IFNγ (initiation of IFNγ-signaling or IFNγ dependent biologic response) [12]: totally unresponsive; responsiveness to IFNγ (initiation of IFNγ-signaling or IFNγ dependent biologic response) [15]: totally unresponsive; responsiveness to IFNγ (initiation of IFNγ-signaling or IFNγ dependent biologic response) ([20]; SL-LC-19 as printed): totally unresponsive; responsiveness to IFNγ (initiation of IFNγ-signaling or IFNγ dependent biologic response) [22]: totally unresponsive; antiproliferative or anti-metabolic effects [25]: no antiproliferative or anti-metabolic effects; share of cell lines showing a quantitative reduction in IFNγ sensitivity [26]: approximately 33%
